Key:
[1] = system: DU-145; assay: Cytotoxicity against human DU-145 cells assessed as reduction in cell viability measured after 72 hrs by SRB assay; assay type: functional, cell-based; conditions: DU-145, 72 h
[2] = system: HCT-116; assay: Cytotoxicity against human HCT-116 cells assessed as reduction in cell viability measured after 72 hrs by SRB assay; assay type: functional, cell-based; conditions: HCT-116, 72 h
[3] = system: PANC-1; assay: Antitumour activity against human PANC-1 cells xenografted in Crl:Nu-Foxnl nu mouse assessed as inhibition of tumour growth at total effective dose of 160 mg/kg, iv measured on day 56; assay type: functional; conditions: PANC-1, iv, 1344 h, time 56 day, read-out: TGI
[4] = system: ASPC1; assay: Cytotoxicity against human ASPC1 cells assessed as reduction in cell viability measured after 72 hrs by SRB assay; assay type: functional, cell-based; conditions: ASPC1, 72 h
[5] = system: PANC-1; assay: Antitumour activity against human PANC-1 cells xenografted in Crl:Nu-Foxnl nu mouse assessed as inhibition of tumour growth at total effective dose of 16 mg/kg, iv measured on day 40; assay type: functional; conditions: PANC-1, iv, 960 h, time 40 day, read-out: TGI
[6] = system: BXPC-3; assay: Cytotoxicity against human BXPC-3 cells assessed as reduction in cell viability measured after 72 hrs by SRB assay; assay type: functional, cell-based; conditions: BXPC-3, 72 h
[7] = system: PANC-1; assay: Cytotoxicity against human PANC-1 cells assessed as reduction in cell viability measured after 72 hrs by SRB assay; assay type: functional, cell-based; conditions: PANC-1, 72 h
[8] = system: PANC-1; assay: Antitumour activity against human PANC-1 cells xenografted in Crl:Nu-Foxnl nu mouse assessed as inhibition of tumour growth at total effective dose of 120 mg/kg, iv measured on day 37; assay type: functional; conditions: PANC-1, iv, 888 h, time 37 day, read-out: TGI
[9] = system: MIA PaCa-2; assay: Cytotoxicity against human MIA PaCa-2 cells assessed as reduction in cell viability measured after 72 hrs by SRB assay; assay type: functional, cell-based; conditions: MIA PaCa-2, 72 h
[10] = system: MDA-MB-231; assay: Cytotoxicity against human MDA-MB-231 cells assessed as reduction in cell viability measured after 72 hrs by SRB assay; assay type: functional, cell-based; conditions: MDA-MB-231, 72 h
[11] = system: Quadruplex DNA; assay: Stabilization of 5'-FAM/3'-TAMRA labeled telomeric G4 quadruplex DNA F21T (unknown origin) assessed as change in melting temperature at 10 microM measured after 15 mins by FRET assay; assay type: nucleic-acid assay
[12] = system: Capan-2; assay: Cytotoxicity against human Capan-2 cells assessed as reduction in cell viability measured after 72 hrs by SRB assay; assay type: functional, cell-based; conditions: Capan-2, 72 h
[13] = system: BXPC-3; assay: Antitumour activity against human BXPC-3 cells xenografted in Crl:Nu-Foxnl nu mouse assessed as inhibition of tumour growth at total effective dose of 40 mg/kg, iv measured on day 34; assay type: functional; conditions: BXPC-3, iv, 816 h, time 34 day, read-out: TGI
[14] = system: PANC-1; assay: Antitumour activity against human PANC-1 cells xenografted in Crl:Nu-Foxnl nu mouse assessed as inhibition of tumour growth at total effective dose of 16 mg/kg, iv measured on day 47; assay type: functional; conditions: PANC-1, iv, 1128 h, time 47 day, read-out: TGI
[15] = system: ASPC1; assay: Antitumour activity against human ASPC1 cells xenografted in Crl:Nu-Foxnl nu mouse assessed as inhibition of tumour growth at total effective dose of 48 mg/kg, iv measured on day 36; assay type: functional; conditions: 864 h, time 36 day, read-out: TGI
[16] = system: PANC-1; assay: Antitumour activity against human PANC-1 cells xenografted in Crl:Nu-Foxnl nu mouse assessed as inhibition of tumour growth at total effective dose of 160 mg/kg, iv measured on day 50; assay type: functional; conditions: PANC-1, iv, 1200 h, time 50 day, read-out: TGI
[17] = Stabilization of ds 5'-FAM-d(TATAGCTATA-HEG-TATAGCTATA)-TAMRA-3' (unknown origin) assessed as change in melting temperature at 10 microM measured after 15 mins by FRET assay; conditions: Homo sapiens
[18] = system: Quadruplex DNA; assay: Stabilization of 5'-FAM/3'-TAMRA labeled K-Ras G4 quadruplex DNA (unknown origin) assessed as change in melting temperature at 10 microM measured after 15 mins by FRET assay; assay type: nucleic-acid assay
[19] = system: Quadruplex DNA; assay: Stabilization of 5'-FAM/3'-TAMRA labeled c-Myc promoter G4 quadruplex DNA FPu18 (unknown origin) assessed as change in melting temperature at 10 microM measured after 15 mins by FRET assay; assay type: nucleic-acid assay
[20] = system: PANC-1; assay: Antitumour activity against human PANC-1 cells xenografted in Crl:Nu-Foxnl nu mouse assessed as inhibition of tumour growth at total effective dose of 8 mg/kg, iv measured on day 52; assay type: functional; conditions: PANC-1, iv, 1248 h, time 52 day, read-out: TGI
[21] = system: BXPC-3; assay: Antitumour activity against human BXPC-3 cells xenografted in Crl:Nu-Foxnl nu mouse assessed as inhibition of tumour growth at total effective dose of 160 mg/kg, iv measured on day 32; assay type: functional; conditions: BXPC-3, iv, 768 h, time 32 day, read-out: TGI
[22] = system: BXPC-3; assay: Antitumour activity against human BXPC-3 cells xenografted in Crl:Nu-Foxnl nu mouse assessed as inhibition of tumour growth at total effective dose of 160 mg/kg, iv measured on day 36; assay type: functional; conditions: BXPC-3, iv, 864 h, time 36 day, read-out: TGI
[23] = system: MDA-MB-231; assay: Antitumour activity against human MDA-MB-231 cells xenografted in Crl:Nu-Foxnl nu mouse assessed as inhibition of tumour growth at total effective dose of 120 mg/kg, iv measured on day 32; assay type: functional; conditions: MDA-MB-231, iv, 768 h, time 32 day, read-out: TGI
[24] = system: NCI-H460; assay: Cytotoxicity against human NCI-H460 cells assessed as reduction in cell viability measured after 72 hrs by SRB assay; assay type: functional, cell-based; conditions: NCI-H460, 72 h

ΔTm [11] [°C] | ΔTm [17] [°C] | ΔTm [18] [°C] | ΔTm [19] [°C] | SMILES | IC50 [1] [nM] | IC50 [2] [nM] | IC50 [4] [nM] | IC50 [6] [nM] | IC50 [7] [nM] | IC50 [9] [nM] | IC50 [10] [nM] | IC50 [12] [nM] | other results
 |  |  |  | Cc1nc2ccc(NCCCN3CCN(CCC(N)c4ccc5nc6ccccc6cc5c4[N+](=O)[O-])CC3)c3c(=O)c4cc(O)ccc4n1c23 (configuration not stated) | 24 | 27 | 151 | 152 | 39 | 18 |  |  | inhibition in vivo at 160 mg/kg [3]: 69%; inhibition in vivo at 16 mg/kg [5]: 68%; inhibition in vivo at 120 mg/kg [8]: 64%
33.3 | 4.6 | 28.3 | 32.8 | COc1ccc2c(c1)c(=O)c1c(NCCCN3CCN(CCC(N)c4ccc5nc6ccccc6cc5c4[N+](=O)[O-])CC3)ccc3ncn2c31 (configuration not stated) | 21 | 28 | 122 | 75 | 40 | 36 | 38 | 27 | inhibition in vivo at 40 mg/kg [13]: 63%; inhibition in vivo at 16 mg/kg [14]: 80%; inhibition in vivo at 48 mg/kg [15]: 32%; inhibition in vivo at 160 mg/kg [16]: 64%
26.1 | 3.9 | 26.6 | 33.2 | NC(CCN1CCN(CCCNc2ccc3nnn4c5ccccc5c(=O)c2c34)CC1)c1ccc2nc3ccccc3cc2c1[N+](=O)[O-] (configuration not stated) | 22 | 22 | 103 | 120 | 138 | 41 | 152 | 33 | inhibition in vivo at 8 mg/kg [20]: 39%
23.3 | 3.4 | 23.7 | 21.9 | Cc1cc(NCCCN(C)CCCNc2ccc3ncn4c5ccccc5c(=O)c2c34)c([N+](=O)[O-])c2cc3ccccc3nc12 | 65 | 65 | 1180 | 224 | 98 | 87 |  |  | inhibition in vivo at 160 mg/kg [21]: 47%; inhibition in vivo at 160 mg/kg [22]: 84%; inhibition in vivo at 120 mg/kg [23]: 62%; IC50 [24]: 25 nM

Source: ChEMBL document CHEMBL4765407, “Design, synthesis and high antitumor potential of new unsymmetrical bisacridine derivatives towards human solid tumors, specifically pancreatic cancers and their unique ability to stabilize DNA G-quadruplexes” (Eur J Med Chem, 2020)
